Each molecule was assayed against T1, Motilin Receptor (Oryctolagus cuniculus, UniProt G1T803) (assay: Motilin receptor binding, rabbit colon membranes, 125I porcine motilin). Details: rabbit colon membranes.
T1 construct: The muscle tissue was homogenized in 10 volumes of 50 mM Tris-Cl; from tissue; host or cells: rabbit colon smooth muscle, crude membrane homogenate
Set-up: Rabbit Colon % Inh / inhibition / % Inh (Rabbit colon): dose or concentration left out as unconfirmed
Method: Rabbit colon was removed, dissected free from the mucosa and serosa, and diced into small pieces. The muscle tissue was homogenized in 10 volumes of 50 mM Tris-Cl, 10 mM MgCl2, 0.1 mg/ml bacitracin, and 0.25 mM Peflabloc, at pH 7.5 in a Polytron (29000 rpm, 4×15 seconds). The homogenate was centrifuged at 1000×g for 15 minutes and the supernatant discarded. The pellet was washed twice before being suspended in homogenizing buffer. The crude homogenate was resuspended through a 23 gauge needle before storing at −80° C. […] After 60 minutes at 30° C., the samples were cooled in ice, centrifuged in the cold at 13000×g for 1 minute. The pellet was washed twice with 1 ml of cold saline, the supernatant was aspirated, and the pellet at the bottom of the tube counted in a gamma counter. Non-specific binding was determined by the inclusion of 1 mM of unlabeled motilin. IC50 values were determined from Kaleidograph curves.

T1 sequence (G1T803 1-400): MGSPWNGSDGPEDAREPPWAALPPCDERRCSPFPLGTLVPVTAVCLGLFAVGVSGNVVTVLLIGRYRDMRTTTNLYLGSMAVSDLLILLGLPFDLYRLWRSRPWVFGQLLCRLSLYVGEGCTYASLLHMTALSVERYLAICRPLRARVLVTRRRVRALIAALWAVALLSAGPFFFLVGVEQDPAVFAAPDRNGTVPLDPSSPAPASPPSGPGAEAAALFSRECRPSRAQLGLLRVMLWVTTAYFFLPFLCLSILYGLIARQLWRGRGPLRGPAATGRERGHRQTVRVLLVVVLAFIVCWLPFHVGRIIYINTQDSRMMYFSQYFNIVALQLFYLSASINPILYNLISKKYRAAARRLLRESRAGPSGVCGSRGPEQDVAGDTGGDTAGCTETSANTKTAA

Compared with `O=C(Nc1ccccc1)N(CC1CCCC(N(Cc2cccc(Cl)c2)C(=O)c2cccc([N+](=O)[O-])c2)C1)c1cccc(OCCN2CCOCC2)c1` (centres unmarked) [compound 55], `O=C(Nc1ccccc1)N(CC1CCCC(N(Cc2cccc(Cl)c2)C(=O)c2cccc(O)c2)C1)c1cccc(OCCN2CCOCC2)c1` (centres unmarked) [compound 86] is lower in “Rabbit Colon % Inh” value: 48% for the first, 16% for the second.

Compared with `O=C(Nc1ccccc1)N(CC1CCCC(N(Cc2cccc(Cl)c2)C(=O)C(c2ccccc2)c2ccccc2)C1)c1cccc(OCCN2CCOCC2)c1` (centres unmarked) [compound 56], `O=C(c1ccc(F)cc1)N(CC1CCCC(N(Cc2cccc(Cl)c2)C(=O)C(c2ccccc2)c2ccccc2)C1)c1cccc(OCCN2CCOCC2)c1` (centres unmarked) [compound 101] is higher in “Rabbit Colon % Inh” value: 27% for the first, 59% for the second.

Going from `O=C(Nc1ccccc1)N(CC1CCCC(N(Cc2cccc(F)c2)C(=O)C(Cl)(Cl)Cl)C1)c1cccc(OCCN2CCOCC2)c1` (centres unmarked) [compound 58] to `COc1cccc(CN(C(=O)C(Cl)(Cl)Cl)C2CCCC(CN(C(=O)Nc3ccccc3)c3cccc(OCCN4CCOCC4)c3)C2)c1` (centres unmarked) [compound 61], the “Rabbit Colon % Inh” value rises from 38% to 55%.

First: O=C(Nc1ccccc1)N(CC1CCCC(N(Cc2ccc(Cl)c(Cl)c2)C(=O)C(Cl)(Cl)Cl)C1)c1cccc(OCCN2CCOCC2)c1 (centres unmarked) [compound 59]
Second: O=C(Nc1ccccc1)N(CC1CCCC(N(Cc2cccc(Cl)c2Cl)C(=O)C(Cl)(Cl)Cl)C1)c1cccc(OCCN2CCOCC2)c1 (centres unmarked) [compound 66]
The “Rabbit Colon % Inh” value of the first is lower: 23% for the first, 39% for the second.

Going from `O=C(Nc1ccccc1)N(CC1CCCC(N(Cc2cccc(C(F)(F)F)c2)C(=O)C(Cl)(Cl)Cl)C1)c1cccc(OCCN2CCOCC2)c1` (centres unmarked) [compound 62] to `O=C(Nc1ccccc1)N(CC1CCCC(N(Cc2ccc(Cl)cc2)C(=O)C(Cl)(Cl)Cl)C1)c1cccc(OCCN2CCOCC2)c1` (centres unmarked) [compound 63], the “Rabbit Colon % Inh” value falls from 58% to 55%.

Compared with `O=C(Nc1ccccc1)N(CC1CCCC(N(Cc2cccc3ccccc23)C(=O)C(Cl)(Cl)Cl)C1)c1cccc(OCCN2CCOCC2)c1` (centres unmarked) [compound 64], `O=C(c1ccc(F)cc1)N(CC1CCCC(N(Cc2cccc3ccccc23)C(=O)C(Cl)(Cl)Cl)C1)c1cccc(OCCN2CCOCC2)c1` (centres unmarked) [compound 94] is lower in “Rabbit Colon % Inh” value: 32% for the first, 28% for the second.

First: O=C(Nc1ccccc1)NC1CCCC(CN(C(=O)Nc2ccccc2)c2cccc(OCCN3CCOCC3)c2)C1 (centres unmarked) [compound 69]
Second: O=C(CCc1ccccc1)NC1CCCC(CN(C(=O)Nc2ccccc2)c2cccc(OCCN3CCOCC3)c2)C1 (centres unmarked) [compound 78]
The “Rabbit Colon % Inh” value of the first is lower: 0% for the first, 10% for the second.

Going from `O=C(NC1CCCC(CN(C(=O)Nc2ccccc2)c2cccc(OCCN3CCOCC3)c2)C1)c1ccco1` (centres unmarked) [compound 70] to `COc1cccc(C(=O)NC2CCCC(CN(C(=O)Nc3ccccc3)c3cccc(OCCN4CCOCC4)c3)C2)c1` (centres unmarked) [compound 76], the “Rabbit Colon % Inh” value rises from 0% to 26%.

Going from `O=C(Nc1ccccc1)N(CC1CCCC(NS(=O)(=O)c2ccc3ccccc3c2)C1)c1cccc(OCCN2CCOCC2)c1` (centres unmarked) [compound 71] to `O=C(NC1CCCC(CN(C(=O)Nc2ccccc2)c2cccc(OCCN3CCOCC3)c2)C1)c1ccc2ccccc2c1` (centres unmarked) [compound 79], the “Rabbit Colon % Inh” value falls from 43% to 39%.

Going from `O=C(Nc1ccccc1)N(CC1CCCC(NC(=O)C(F)(F)F)C1)c1cccc(OCCN2CCOCC2)c1` (centres unmarked) [compound 73] to `CC(C)(C)C(=O)NC1CCCC(CN(C(=O)Nc2ccccc2)c2cccc(OCCN3CCOCC3)c2)C1` (centres unmarked) [compound 77], the “Rabbit Colon % Inh” value falls from 25% to 19%.

First: O=C(NC1CCCC(CN(C(=O)Nc2ccccc2)c2cccc(OCCN3CCOCC3)c2)C1)c1cc(C(F)(F)F)cc(C(F)(F)F)c1 (centres unmarked) [compound 74]
Second: O=C(Nc1ccccc1)N(CC1CCCC(N(Cc2ccccc2)C(=O)c2cc(C(F)(F)F)cc(C(F)(F)F)c2)C1)c1cccc(OCCN2CCOCC2)c1 (centres unmarked) [compound 82]
The “Rabbit Colon % Inh” value of the first is higher: 29% for the first, 0% for the second.

First: O=C(NC1CCCC(CN(C(=O)Nc2ccccc2)c2cccc(OCCN3CCOCC3)c2)C1)c1ccc(-c2ccccc2)cc1 (centres unmarked) [compound 75]
Second: O=C(Nc1ccccc1)N(CC1CCCC(N(Cc2ccccc2)C(=O)c2ccc(-c3ccccc3)cc2)C1)c1cccc(OCCN2CCOCC2)c1 (centres unmarked) [compound 83]
The “Rabbit Colon % Inh” value of the first is higher: 19% for the first, 3% for the second.

Going from `O=C(NC1CCCC(CN(C(=O)Nc2ccccc2)c2cccc(OCCN3CCOCC3)c2)C1)c1cccc([N+](=O)[O-])c1` (centres unmarked) [compound 80] to `O=C(NC1CCCC(CN(C(=O)Nc2ccccc2)c2cccc(OCCN3CCOCC3)c2)C1)C(c1ccccc1)c1ccccc1` (centres unmarked) [compound 81], the “Rabbit Colon % Inh” value rises from 34% to 56%.

First: O=C(c1ccc(F)cc1)N(CC1CCCC(NC(=O)C(Cl)(Cl)Cl)C1)c1cccc(OCCN2CCOCC2)c1 (centres unmarked) [compound 91]
Second: O=C(c1ccc(F)cc1)N(CC1CCCC(N(Cc2ccc(Cl)cc2)C(=O)C(Cl)(Cl)Cl)C1)c1cccc(OCCN2CCOCC2)c1 (centres unmarked) [compound 95]
The “Rabbit Colon % Inh” value of the first is lower: 36% for the first, 51% for the second.

Going from `O=C(c1ccc(F)cc1)N(CC1CCCC(N(Cc2cccc(Cl)c2Cl)C(=O)C(Cl)(Cl)Cl)C1)c1cccc(OCCN2CCOCC2)c1` (centres unmarked) [compound 92] to `O=C(c1ccc(F)cc1)N(CC1CCCC(N(Cc2cccc(F)c2)C(=O)C(Cl)(Cl)Cl)C1)c1cccc(OCCN2CCOCC2)c1` (centres unmarked) [compound 100], the “Rabbit Colon % Inh” value falls from 80% to 78%.

First: COc1cccc(CN(C(=O)C(Cl)(Cl)Cl)C2CCCC(CN(C(=O)c3ccc(F)cc3)c3cccc(OCCN4CCOCC4)c3)C2)c1 (centres unmarked) [compound 97]
Second: O=C(c1ccc(F)cc1)N(CC1CCCC(N(Cc2cccc(Cl)c2)C(=O)CCc2ccccc2)C1)c1cccc(OCCN2CCOCC2)c1 (centres unmarked) [compound 104]
The “Rabbit Colon % Inh” value of the first is higher: 56% for the first, 30% for the second.

First: O=C(c1ccc(F)cc1)N(CC1CCCC(N(Cc2cccc(Cl)c2)C(=O)c2cccc([N+](=O)[O-])c2)C1)c1cccc(OCCN2CCOCC2)c1 (centres unmarked) [compound 102]
Second: O=C(c1ccc(F)cc1)N(CC1CCCC(N(Cc2ccccc2)C(=O)c2cccc([N+](=O)[O-])c2)C1)c1cccc(OCCN2CCOCC2)c1 (centres unmarked) [compound 113]
The “Rabbit Colon % Inh” value of the first is lower: 47% for the first, 51% for the second.

Compared with `O=C(c1ccc(F)cc1)N(CC1CCCC(N(Cc2cccc(Cl)c2)C(=O)c2ccc3ccccc3c2)C1)c1cccc(OCCN2CCOCC2)c1` (centres unmarked) [compound 103], `O=C(c1ccc(F)cc1)N(CC1CCCC(N(Cc2ccccc2)C(=O)c2ccc3ccccc3c2)C1)c1cccc(OCCN2CCOCC2)c1` (centres unmarked) [compound 114] is higher in “Rabbit Colon % Inh” value: 2% for the first, 49% for the second.

Compared with `O=C(c1ccc(F)cc1)N(CC1CCCC(N(Cc2cccc(Cl)c2)C(=O)c2cc(C(F)(F)F)cc(C(F)(F)F)c2)C1)c1cccc(OCCN2CCOCC2)c1` (centres unmarked) [compound 107], `O=C(c1ccc(F)cc1)N(CC1CCCC(N(Cc2cccc(Cl)c2)C(=O)c2ccc(-c3ccccc3)cc2)C1)c1cccc(OCCN2CCOCC2)c1` (centres unmarked) [compound 109] is lower in “Rabbit Colon % Inh” value: 29% for the first, 27% for the second.

Same assay, conditions: rabbit colon membranes; 125I porcine motilin binding

First: O=C(Nc1ccccc1)N(CC1CCCC(NCc2ccccc2)C1)c1cccc(OCCN2CCOCC2)c1 (centres unmarked) [compound 84]
Second: O=C(Nc1ccccc1)N(CC1CCCC(NCc2cccc(Cl)c2)C1)c1cccc(OCCN2CCOCC2)c1 (centres unmarked) [compound 85]
The “% Inh (Rabbit colon)” value of the first is lower: 12% for the first, 28% for the second.

First: O=C(Nc1ccccc1)N(CC1CCCC(NCc2cc(Cl)cc(Cl)c2)C1)c1cccc(OCCN2CCOCC2)c1 (centres unmarked) [compound 87]
Second: O=C(Nc1ccccc1)N(CC1CCCC(NCc2cccc3ccccc23)C1)c1cccc(OCCN2CCOCC2)c1 (centres unmarked) [compound 88]
The “% Inh (Rabbit colon)” value of the first is higher: 22% for the first, 0% for the second.

Same assay, conditions: rabbit colon membranes; read-out: Rabbit Colon % Inh

Compared with `O=C(Nc1ccccc1)N(CC1CCCC(N(Cc2ccccc2)S(=O)(=O)c2ccc3ccccc3c2)C1)c1cccc(OCCN2CCOCC2)c1` (centres unmarked) [compound 57], `O=C(Nc1ccccc1)N(CC1CCCC(N(Cc2ccccc2)C(=O)C(Cl)(Cl)Cl)C1)c1cccc(OCCN2CCOCC2)c1` (centres unmarked) [compound 67] is higher in inhibition: 15% for the first, 75% for the second.

Compared with `O=C(Nc1ccccc1)N(CC1CCCC(N(Cc2cc(Cl)cc(Cl)c2)C(=O)C(Cl)(Cl)Cl)C1)c1cccc(OCCN2CCOCC2)c1` (centres unmarked) [compound 60], `O=C(c1ccc(F)cc1)N(CC1CCCC(N(Cc2cc(Cl)cc(Cl)c2)C(=O)C(Cl)(Cl)Cl)C1)c1cccc(OCCN2CCOCC2)c1` (centres unmarked) [compound 98] is higher in inhibition: 65% for the first, 75% for the second.

Compared with `O=C(Nc1ccccc1)N(CC1CCCC(N(Cc2ccccn2)C(=O)C(Cl)(Cl)Cl)C1)c1cccc(OCCN2CCOCC2)c1` (centres unmarked) [compound 68], `O=C(Nc1ccccc1)N(CC1CCCC(NC(=O)C(Cl)(Cl)Cl)C1)c1cccc(OCCN2CCOCC2)c1` (centres unmarked) [compound 72] is lower in inhibition: 73% for the first, 40% for the second.

First: O=C(c1ccc(F)cc1)N(CC1CCCC(N(Cc2ccc(Cl)c(Cl)c2)C(=O)C(Cl)(Cl)Cl)C1)c1cccc(OCCN2CCOCC2)c1 (centres unmarked) [compound 99]
Second: O=C(c1ccc(F)cc1)N(CC1CCCC(N(Cc2cccc(Cl)c2)C(=O)C(Cl)(Cl)Cl)C1)c1cccc(OCCN2CCOCC2)c1 (centres unmarked) [compound 111]
The inhibition of the first is lower: 62% for the first, 72% for the second.

Compared with `COc1cccc(C(=O)N(Cc2cccc(Cl)c2)C2CCCC(CN(C(=O)c3ccc(F)cc3)c3cccc(OCCN4CCOCC4)c3)C2)c1` (centres unmarked) [compound 106], `O=C(c1ccc(F)cc1)N(CC1CCCC(N(Cc2cccc(Cl)c2)C(=O)C(F)(F)F)C1)c1cccc(OCCN2CCOCC2)c1` (centres unmarked) [compound 108] is higher in inhibition: 69% for the first, 70% for the second.

With `O=C(c1ccc(F)cc1)N(CC1CCCC(N(Cc2ccccc2)C(=O)C(c2ccccc2)c2ccccc2)C1)c1cccc(OCCN2CCOCC2)c1` (centres unmarked) [compound 112] the inhibition was 70%.

Same assay, conditions: rabbit colon membranes; read-out: Rabbit Colon IC50

`O=C(Nc1ccccc1)N(CC1CCCC(N(Cc2cc(Cl)cc(Cl)c2)C(=O)C(Cl)(Cl)Cl)C1)c1cccc(OCCN2CCOCC2)c1` (centres unmarked) [compound 60] and `O=C(Nc1ccccc1)N(CC1CCCC(N(Cc2ccccc2)C(=O)C(Cl)(Cl)Cl)C1)c1cccc(OCCN2CCOCC2)c1` (centres unmarked) [compound 67] are within 1.5-fold of each other in IC50: 660 nM for the first, 957 nM for the second.

`O=C(Nc1ccccc1)N(CC1CCCC(N(Cc2ccccn2)C(=O)C(Cl)(Cl)Cl)C1)c1cccc(OCCN2CCOCC2)c1` (centres unmarked) [compound 68] and `O=C(c1ccc(F)cc1)N(CC1CCCC(N(Cc2cccc(Cl)c2)C(=O)C(Cl)(Cl)Cl)C1)c1cccc(OCCN2CCOCC2)c1` (centres unmarked) [compound 111] are within 1.5-fold of each other in IC50: 660 nM for the first, 880 nM for the second.

`O=C(c1ccc(F)cc1)N(CC1CCCC(N(Cc2cc(Cl)cc(Cl)c2)C(=O)C(Cl)(Cl)Cl)C1)c1cccc(OCCN2CCOCC2)c1` (centres unmarked) [compound 98] and `O=C(c1ccc(F)cc1)N(CC1CCCC(N(Cc2ccc(Cl)c(Cl)c2)C(=O)C(Cl)(Cl)Cl)C1)c1cccc(OCCN2CCOCC2)c1` (centres unmarked) [compound 99] are within 1.5-fold of each other in IC50: 760 nM for the first, 572 nM for the second.

`COc1cccc(C(=O)N(Cc2cccc(Cl)c2)C2CCCC(CN(C(=O)c3ccc(F)cc3)c3cccc(OCCN4CCOCC4)c3)C2)c1` (centres unmarked) [compound 106] and `O=C(c1ccc(F)cc1)N(CC1CCCC(N(Cc2cccc(Cl)c2)C(=O)C(F)(F)F)C1)c1cccc(OCCN2CCOCC2)c1` (centres unmarked) [compound 108] are within 1.5-fold of each other in IC50: 1050 nM for the first, 815 nM for the second.

In the case of `O=C(c1ccc(F)cc1)N(CC1CCCC(N(Cc2ccccc2)C(=O)C(c2ccccc2)c2ccccc2)C1)c1cccc(OCCN2CCOCC2)c1` (centres unmarked) [compound 112], the IC50 is reported as 480 nM.
